Our source for the Ki and IC50 values is patent US9079866B2, “Flap modulators” (JANSSEN PHARMACEUTICA NV, priority 2013, dated 2015).

The structures appear in SMILES notation. pIC50, pKi: −log10 of the molar value. Like-named read-outs stand apart in the source and are kept apart here.

For one assay, the target named is human FLAP (Homo sapiens (Human), UniProt P20292). Put plainly: FLAP binding assay (HTRF format). As to conditions: human FLAP wild type, HTRF format; average of two plates, duplicates. In outline: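 Binding of compounds to FLAP read out as HTRF ratio. Values are the mean of two assay plates, each sample run in duplicate per plate.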
Assay [1] deals with leukotriene pathway in human whole blood (LTB4 levels). Put plainly: Human whole blood assay (A23187-stimulated LTB4). The format is cell-based. To be noted: human whole blood diluted 1:1 in RPMI, A23187-stimulated LTB4, read-out: LTB4 IC50 1:1. In outline:
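Single-replicate data from at least one healthy donor: compound pre-incubated 15 min at 37° Celsius in 1:1 RPMI-diluted heparinised blood, followed by 30 min calcium ionophore A23187 (7 μg/mL) challenge at 37° Celsius. LTB4 in plasma quantified by kit; IC50 via 4-parameter equation.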

Chain of human FLAP (P20292 whole entry): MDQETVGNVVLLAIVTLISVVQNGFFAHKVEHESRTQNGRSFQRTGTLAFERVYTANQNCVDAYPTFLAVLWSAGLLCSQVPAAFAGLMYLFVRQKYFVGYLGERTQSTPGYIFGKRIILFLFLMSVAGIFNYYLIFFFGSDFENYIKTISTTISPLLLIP

`Nc1cnc(-c2ccc(-c3ccccc3S(=O)(=O)N3CC[C@@H](CO)C3)cc2F)cn1` [Example 111, (R)-(1-((4′-(5-Aminopyrazin-2-yl)-3′-fluoro-[1,1′-biphenyl]-2-yl)sulfonyl)pyrrolidin-3-yl)methanol]: the pKi at human FLAP is 8.40. Also, the negative logarithm of the IC50 (pIC50) in assay [1] (Homo sapiens) was 7.24.

Molecule `Nc1cnc(-c2ccc(-c3ccccc3S(=O)(=O)N3CC[C@H](CO)C3)cc2F)cn1` [Example 112, (S)-(1-{[4′-(5-Aminopyrazin-2-yl)-3′-fluorobiphenyl-2-yl]sulfonyl}pyrrolidin-3-yl)methanol] gave a negative logarithm of the Ki (pKi) at human FLAP of 8.15. In addition, in assay [1] (Homo sapiens), the pIC50 was 6.81.

`Nc1cnc(-c2ccc(-c3ccccc3S(=O)(=O)N[C@@H]3CCCNC3=O)cc2F)cn1` [Example 113, (R)-4′-(5-Aminopyrazin-2-yl)-3′-fluoro-N-(2-oxopiperidin-3-yl)biphenyl-2-sulfonamide] gave a pKi at human FLAP of 8.00. Besides, in assay [1] (Homo sapiens), the negative-log IC50 (pIC50) is 6.84.

`CN([C@@H]1CCCNC1)S(=O)(=O)c1ccccc1-c1ccc(-c2cnc(N)cn2)c(F)c1` [Example 114, (R)-4′-(5-Aminopyrazin-2-yl)-3′-fluoro-N-methyl-N-piperidin-3-ylbiphenyl-2-sulfonamide] gave a pKi at human FLAP of 7.92. Further, in assay [1] (Homo sapiens), the negative logarithm of the IC50 (pIC50) was 6.66.

Molecule `CN([C@H]1CCCNC1)S(=O)(=O)c1ccccc1-c1ccc(-c2cnc(N)cn2)c(F)c1` [Example 115, (S)-4′-(5-Aminopyrazin-2-yl)-3′-fluoro-N-methyl-N-piperidin-3-ylbiphenyl-2-sulfonamide] showed a negative-log Ki (pKi) at human FLAP of 8.40. Further, the pIC50 in assay [1] (Homo sapiens) was 6.97.

On to `Nc1cnc(-c2ccc(-c3ccccc3S(=O)(=O)N[C@H](CO)Cc3ccccc3)cc2F)cn1` [Example 116, (S)-4′-(5-Aminopyrazin-2-yl)-3′-fluoro-N-(1-hydroxy-3-phenylpropan-2-yl)-[1,1′-biphenyl]-2-sulfonamide], for which, on human FLAP, the pKi is 9.00. In addition, the pIC50 in assay [1] (Homo sapiens) is 7.92.

In the case of `Nc1cnc(-c2ccc(-c3ccccc3S(=O)(=O)NC[C@H](O)c3ccccc3)cc2F)cn1` [Example 117, (R)-4′-(5-Aminopyrazin-2-yl)-3′-fluoro-N-(2-hydroxy-2-phenylethyl)-[1,1′-biphenyl]-2-sulfonamide], the negative logarithm of the Ki (pKi) on human FLAP is 9.00. For the same molecule, the pIC50 in assay [1] (Homo sapiens) was 8.15.

`Nc1cnc(-c2ccc(-c3ccccc3S(=O)(=O)N3CC(O)C3)cc2F)cn1` [Example 119, 1-{[4′-(5-Aminopyrazin-2-yl)-3′-fluorobiphenyl-2-yl]sulfonyl}azetidin-3-ol] gave a negative-log Ki (pKi) on human FLAP of 8.52. Moreover, in assay [1] (Homo sapiens), the negative-log IC50 (pIC50) was 7.66.

For `Nc1cnc(-c2ccc(-c3ccccc3S(=O)(=O)NC3CCNCC3)cc2F)cn1` [Example 123, 4′-(5-Aminopyrazin-2-yl)-3′-fluoro-N-piperidin-4-ylbiphenyl-2-sulfonamide], the pKi on human FLAP is 7.08. Also, the pIC50 in assay [1] (Homo sapiens) is 5.95.

In the case of `NCC1CN(S(=O)(=O)c2ccccc2-c2ccc(-c3cnc(N)cn3)c(F)c2)C1` [Example 124, 5-(2′-{[3-(Aminomethyl)azetidin-1-yl]sulfonyl}-3-fluorobiphenyl-4-yl)pyrazin-2-amine], at human FLAP, the pKi was 7.46. Further, the negative logarithm of the IC50 (pIC50) in assay [1] (Homo sapiens) is 6.66.

`Nc1cnc(-c2ccc(-c3ccccc3S(=O)(=O)NCC3CNC3)cc2F)cn1` [Example 125, 4′-(5-Aminopyrazin-2-yl)-N-(azetidin-3-ylmethyl)-3′-fluorobiphenyl-2-sulfonamide] showed a negative-log Ki (pKi) on human FLAP of 7.30. In addition, the pIC50 in assay [1] (Homo sapiens) is less than 5.00.

With `C[C@@H](NS(=O)(=O)c1ccccc1-c1ccc(-c2cnc(N)cn2)c(F)c1)C(F)(F)F` [Example 127, (R)-4′-(5-Aminopyrazin-2-yl)-3′-fluoro-N-(2,2,2-trifluoro-1-methylethyl)biphenyl-2-sulfonamide], on human FLAP, the pKi was 8.70. The negative-log IC50 (pIC50) in assay [1] is 7.46.

`Nc1cnc(-c2ccc(-c3ccccc3S(=O)(=O)N3CCc4[nH]ncc4C3)cc2F)cn1` [Example 128, 5-[3-Fluoro-2′-(1,4,6,7-tetrahydro-5H-pyrazolo[4,3-c]pyridin-5-ylsulfonyl)biphenyl-4-yl]pyrazin-2-amine] had a pKi on human FLAP of 9.00. Also, in assay [1] (Homo sapiens), the negative logarithm of the IC50 (pIC50) is 7.42.

On human FLAP, `Nc1cnc(-c2ccc(-c3ccccc3S(=O)(=O)N3CCC(n4cn[nH]c4=O)CC3)cc2F)cn1` [Example 129, 4-(1-{[4′-(5-Aminopyrazin-2-yl)-3′-fluorobiphenyl-2-yl]sulfonyl}piperidin-4-yl)-2,4-dihydro-3H-1,2,4-triazol-3-one] had a pKi of 8.40. Further, in assay [1] (Homo sapiens), the pIC50 is 6.27.

On to `Nc1cnc(-c2ccc(-c3ccccc3S(=O)(=O)N3C[C@H]4C[C@@H]3CN4)cc2F)cn1` [Example 130, 5-(2′-((1R,4R)-2,5-Diazabicyclo[2.2.1]heptan-2-ylsulfonyl)-3-fluoro-[1,1′-biphenyl]-4-yl)pyrazin-2-amine], for which the pKi on human FLAP was 6.89. Further, the pIC50 in assay [1] (Homo sapiens) was 6.20.

In the case of `Nc1cnc(-c2ccc(-c3ccccc3S(=O)(=O)N3C[C@@H]4C[C@H]3CN4)cc2F)cn1` [Example 131, 5-(2′-((1S,4S)-2,5-Diazabicyclo[2.2.1]heptan-2-ylsulfonyl)-3-fluoro-[1,1′-biphenyl]-4-yl)pyrazin-2-amine], the pKi at human FLAP was 6.84. For the same molecule, in assay [1] (Homo sapiens), the pIC50 was 6.16.

Consider `Nc1cnc(-c2ccc(-c3ccccc3S(=O)(=O)NCCCCCO)cc2F)cn1` [Example 132, 4′-(5-Aminopyrazin-2-yl)-3′-fluoro-N-(5-hydroxypentyl)biphenyl-2-sulfonamide], for which, at human FLAP, the negative logarithm of the Ki (pKi) was 8.70. Besides, in assay [1] (Homo sapiens), the pIC50 is 7.96.

In turn, `Nc1cnc(-c2ccc(-c3ccccc3S(=O)(=O)NCCCCCCO)cc2F)cn1` [Example 133, 4′-(5-Aminopyrazin-2-yl)-3′-fluoro-N-(6-hydroxyhexyl)biphenyl-2-sulfonamide] had a pKi at human FLAP of 9.00. For the same molecule, in assay [1] (Homo sapiens), the pIC50 was 7.49.

Take `Nc1cnc(-c2ccc(-c3ccccc3S(=O)(=O)N[C@H]3CC[C@@H](N)CC3)cc2F)cn1` [Example 134, cis-N-(4-Aminocyclohexyl)-4′-(5-aminopyrazin-2-yl)-3′-fluorobiphenyl-2-sulfonamide]: at human FLAP, the negative-log Ki (pKi) is 9.00. The pIC50 in assay [1] (Homo sapiens) is less than 6.00.

With `Nc1cnc(-c2ccc(-c3ccccc3S(=O)(=O)N(CCO)C3CCCCC3)cc2F)cn1` [Example 136, 4′-(5-Aminopyrazin-2-yl)-N-cyclohexyl-3′-fluoro-N-(2-hydroxyethyl)biphenyl-2-sulfonamide], the pKi at human FLAP is 9.00. Besides, in assay [1] (Homo sapiens), the negative logarithm of the IC50 (pIC50) is 7.82.

Turning to `Nc1cnc(-c2ccc(-c3ccccc3S(=O)(=O)N3CCC[C@H](N)C3)cc2F)cn1` [Example 137, (S)-5-{2′-[(3-Aminopiperidin-1-yl)sulfonyl]-3-fluorobiphenyl-4-yl}pyrazin-2-amine], the pKi on human FLAP was 8.52. Also, the pIC50 in assay [1] (Homo sapiens) is 7.36.

`Nc1cnc(-c2ccc(-c3ccccc3S(=O)(=O)N(CCO)CCO)cc2F)cn1` [Example 138, 4′-(5-Aminopyrazin-2-yl)-3′-fluoro-N,N-bis(2-hydroxyethyl)biphenyl-2-sulfonamide] showed a negative logarithm of the Ki (pKi) at human FLAP of 7.96. The negative-log IC50 (pIC50) in assay [1] (Homo sapiens) was 6.76.

In the case of `Nc1cnc(-c2ccc(-c3ccccc3S(=O)(=O)N(C3CCOCC3)C3CC3)cc2F)cn1` [Example 140, 4′-(5-Aminopyrazin-2-yl)-N-cyclopropyl-3′-fluoro-N-(tetrahydro-2H-pyran-4-yl)biphenyl-2-sulfonamide], the negative-log Ki (pKi) at human FLAP is 9.00. The negative-log IC50 (pIC50) in assay [1] (Homo sapiens) was 7.96.

As for `CC(C)N(CCO)S(=O)(=O)c1ccccc1-c1ccc(-c2cnc(N)cn2)c(F)c1` [Example 141, 4′-(5-Aminopyrazin-2-yl)-3′-fluoro-N-(2-hydroxyethyl)-N-(1-methylethyl)biphenyl-2-sulfonamide], the negative-log Ki (pKi) at human FLAP is 9.00. Also, the pIC50 in assay [1] (Homo sapiens) is 8.52.

For `Nc1cnc(-c2ccc(-c3ccccc3S(=O)(=O)N3C[C@@H]4C(N)[C@@H]4C3)cc2F)cn1` (stereo partly drawn) [Example 143, endo-3-((4′-(5-Aminopyrazin-2-yl)-3′-fluoro-[1,1′-biphenyl]-2-yl)sulfonyl)-3-azabicyclo[3.1.0]hexan-6-amine], the pKi at human FLAP is 8.10. In addition, the negative-log IC50 (pIC50) in assay [1] (Homo sapiens) is 7.31.

On human FLAP, `C[C@H]1CNCCN1S(=O)(=O)c1ccccc1-c1ccc(-c2cnc(N)cn2)c(F)c1` [Example 144, (S)-5-(3-Fluoro-2′-((2-methylpiperazin-1-yl)sulfonyl)-[1,1′-biphenyl]-4-yl)pyrazin-2-amine] showed a pKi of 7.82. Further, the negative-log IC50 (pIC50) in assay [1] (Homo sapiens) was 7.01.

As to `C[C@@H]1CNCCN1S(=O)(=O)c1ccccc1-c1ccc(-c2cnc(N)cn2)c(F)c1` [Example 145, (R)-5-(3-Fluoro-2′-((2-methylpiperazin-1-yl)sulfonyl)-[1,1′-biphenyl]-4-yl)pyrazin-2-amine], the negative-log Ki (pKi) on human FLAP is 7.77. Further, in assay [1] (Homo sapiens), the pIC50 is 7.68.

On human FLAP, `Nc1cnc(-c2ccc(-c3ccccc3S(=O)(=O)N3CCNC[C@@H]3CO)cc2F)cn1` [Example 146, (R)-(1-((4′-(5-Aminopyrazin-2-yl)-3′-fluoro-[1,1′-biphenyl]-2-yl)sulfonyl)piperazin-2-yl)methanol] showed a pKi of 7.72. Besides, the negative-log IC50 (pIC50) in assay [1] (Homo sapiens) was 6.77.

With `CC(CO)(CO)NS(=O)(=O)c1ccccc1-c1ccc(-c2cnc(N)cn2)c(F)c1` [Example 147, 4′-(5-Aminopyrazin-2-yl)-3′-fluoro-N-[2-hydroxy-1-(hydroxymethyl)-1-methylethyl]biphenyl-2-sulfonamide], on human FLAP, the negative-log Ki (pKi) was 9.00. In addition, in assay [1] (Homo sapiens), the pIC50 is 6.99.

Consider `CC(C)[C@@H](CO)NS(=O)(=O)c1ccccc1-c1ccc(-c2cnc(N)cn2)c(F)c1` [Example 148, (S)-4′-(5-Aminopyrazin-2-yl)-3′-fluoro-N-(1-hydroxy-3-methylbutan-2-yl)-[1,1′-biphenyl]-2-sulfonamide], for which the pKi at human FLAP is 8.70. The pIC50 in assay [1] (Homo sapiens) was 8.10.

The term pKi denotes −log10 of the Ki, conventionally taken in molar units. The pIC50 is −log10 of the IC50, conventionally taken in molar units.
